Test system: tobacco budworm (H. virescens)
Assay: Feeding disruption assay, CryIAc in Trypan Blue diet (fresh diet)
Assay type: in vivo, Heliothis virescens
Experimental: The blue diet used in the feeding disruption bioassay is an agar based insect meal containing 20 mg of Trypan Blue (Direct Blue 14; Matheson Coleman & Bell, Norwood, Ohio) per 100 ml of standard artificial diet, and containing different concentrations of CryIAc (MVP, Mycogen). Larvae feeding on this colored diet produced blue feces which were easily distinguished by observation from feces derived from other food sources. Assays were conducted in 1-ounce clear plastic cups (Solo Cup Company, Urbana, Ill.; approximately […] in diameter and ¾ inches high) fitted with white cardboard tops, which are routinely used for insect rearing in the inventors' laboratories. The clear plastic allowed for the observation of blue feces without opening the container.
Third instars from Wake (Bt susceptible), YHD2 (Bt resistant), and YHD2×Wake hybrid strains of the tobacco budworm (H. virescens) were used. Instars weighed 30±5 mg and were reared either on standard artificial diet or cotton plants. Instars were starved for one hour and then transferred to clear plastic assay cups, one larvae per cup. The starvation treatment synchronized the beginning of feeding between individuals once transferred to the dye-containing diet. The effect of different concentrations of CryIAc (0 to 0.064 μg CryIAc/ml diet) on the production of blue feces was examined for one to 24 hours at 27±1° C. and […] (light:dark). Studies were conducted in triplicate with 15 larvae per replicate. Once a diagnostic concentration and optimum assay time were identified from these experiments, the accuracy of resistance detection was investigated for individual resistant and susceptible neonates of H. virescens. These experiments were duplicated for 25 resistant and 25 susceptible budworms from two different budworm generations.
The diagnostic concentration for resistance detection was also investigated for its ability to distinguish Wake susceptible H. virescens from H. zea. In addition, dose response studies were conducted to identify a concentration of Bt that would distinguish resistant YHD2 neonates of H. virescens from H. zea. Dose response studies were duplicated for 25 resistant (HD2) tobacco budworms and 25 bollworms from two generations at different doses of Bt ranging from 0 to 1000 μg CryIAc/ml of blue diet.

[1] = Wake third instars, 0.008 μg/ml, 24 hours
[2] = Wake third instars, 0.032 μg CryIAc/ml diet, 24 hours
[3] = Wake third instars, 0.032 μg CryIAc/ml, 4 hours
[4] = Wake third instars, 0.032 μg CryIAc/ml, 8 hours
[5] = YHD2 third instars, 0.008 μg/ml, 24 hours
[6] = YHD2 third instars, 0.032 μg CryIAc/ml diet, 24 hours
[7] = YHD2 third instars, 0.032 μg CryIAc/ml, 4 hours
[8] = YHD2 third instars, 0.032 μg CryIAc/ml, 8 hours
[9] = YHD2×Wake hybrid third instars, 0.032 μg/ml, 24 hours

## CryIAc: Bacillus thuringiensis CryIAc δ-endotoxin, commercial formulation MVP (Mycogen), >98.0% δ endotoxin
[1]
  blue fecal pellets per larva: 4 /larva
  total blue fecal pellets: 63 fecal pellets/15 larvae
[2]
  blue fecal pellets per larva: 0.8 /larva
  total blue fecal pellets: 12 fecal pellets/15 larvae
[3]
  blue fecal pellets per larva: 0.1 /larva
  total blue fecal pellets: 1.6 fecal pellets/15 larvae
[4]
  blue fecal pellets per larva: 0.3 /larva
  total blue fecal pellets: 5 fecal pellets/15 larvae
Wake third instars, 0.032 μg CryIAc/ml, after 14 hours, ±1 SE
  percentage of larvae that had produced blue feces: 2.2±3.9%
YHD2 neonates, 500 μg CryIAc/ml blue diet, 24 hours
  minimum fecal production by any individual: five
YHD2 third instars reared on cotton, 0.032 μg CryIAc/ml Blue diet, 24 hours
  fecal pellets produced per 15 larvae: > 140 fecal pellets per 15 larvae
[5]
  blue fecal pellets per larva: 53 /larva
  total blue fecal pellets: 800 fecal pellets/15 larvae
[6]
  blue fecal pellets per larva: 31 /larva
  total blue fecal pellets: 470 fecal pellets/15 larvae
[7]
  blue fecal pellets per larva: 3 /larva
  total blue fecal pellets: 46 fecal pellets/15 larvae
[8]
  blue fecal pellets per larva: 9 /larva
  total blue fecal pellets: 129 fecal pellets/15 larvae
YHD2 third instars, 0.032 μg CryIAc/ml, in 5 hours, ±1 SE
  percentage producing one or more blue fecal pellets: 85±3.9%
YHD2 third instars, 0.032 μg CryIAc/ml, in 9 hours, ±1 SE
  percentage producing one or more blue fecal pellets: 95±3.9%
YHD2 third instars, 0.032 μg CryIAc/ml, in 14 hours, ±1 SE
  percentage producing one or more blue fecal pellets: 100.0±0.0%
[9]
  blue fecal pellets per larva: 5 /larva
  total blue fecal pellets: 68 fecal pellets/15 larvae
Laboratory susceptible H. virescens strain, 0.032 μg MVP per ml diet
  percentage producing 0-2 fecal pellets in 24 h: 88.0%
Susceptible (Wake) neonates, 0.032 μg CryIAc/ml diet, 24 hour
  number of H. virescens producing six blue fecal pellets (the maximum): 1 out of 50
Susceptible (Wake) third instars reared on cotton, 0.032 μg CryIAc/ml Blue diet
  blue feces production: Essentially no blue feces were produced
